Test [1] concerns E. coli JW55031 (tolC-mutant). Nature of the test: microbe, parasite or virus in culture. Format: cell-based, Escherichia coli. To be noted: Escherichia coli. In outline:
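Broth microdilution per CLSI with ~5 × 10^5 CFU/mL inoculum and serially diluted compounds. S. aureus and E. coli were tested in CAMHB, aerobic, 37 °C, 18–20 h; C. difficile in supplemented brain heart infusion broth (yeast extract, hemin, vitamin K), anaerobic, 37 °C, 48 h. MIC read as visible growth.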

In test [2] the test system is Lactobacillus casei ATCC-334. The test is described as follows: Broth microdilution MIC against normal human microbiota. Format: cell-based. To be noted: Lacticaseibacillus casei, ATCC334; Lactobacillus casei ATCC-334; read-out: MIC. In outline: (§1)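 Inoculum of about 5 x 10^5 CFU/mL in MRS broth, with compounds serially diluted in triplicate. MICs read after 48 hours at 37 °C; three independent repeats.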
A general note: Dilution methods test growth across graded concentrations, often in twofold steps.

Test [3] deals with Lactobacillus crispatus HM-370. The test is described as above. Format: cell-based. To be noted: HM370; Lactobacillus crispatus HM-370; read-out: MIC. In a few lines: as §1
Test [4] relates to Lactobacillus gasseri HM-400. The description is as above. Format: cell-based. To be noted: HM400; Lactobacillus gasseri HM-400; read-out: MIC. In outline: as §1
For a further test, the system named is Cryptococcus gattii. Nature of the test: Antifungal broth microdilution MIC (50% growth inhibition, 48 h). The class given is cell-based. To be noted: Cryptococcus gattii, read-out: MIC. In outline:
(§2)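 CLSI broth microdilution, 128 to 0.06 μg/mL in triplicate, on clinical isolates; MIC is lowest concentration giving 50% growth inhibition after 24 h (Candida) or 48 h (Cryptococcus) at 35 °C. MFC: no-growth wells plated on YPD agar, 24 h at 37 °C, 99.9% reduction; three independent repeats.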

In another test the test system is Cryptococcus neoformans. Described as above. Format: cell-based. To be noted: Cryptococcus neoformans, read-out: MIC. In outline:
as §2

Another test has as its system Candida strains. The test is described as follows: Minimum fungicidal concentration, summary over Candida strains. Format: cell-based. To be noted: strains of Table 6. As to the method: Serial dilutions (from 128 μg/mL to 0.06 μg/mL) of the tested compounds and control drugs (fluconazole, itraconazole and amphotericin) (in triplicates), were screened against clinical isolates of Candida albicans, Candida auris, Candida glabrata, Candida parapsilosis, Candida tropicalis, Candida krusei, Cryptococcus neoformans, Cryptococcus gattii and Aspergillus fumigatus species using the broth microdilution method according to the Clinical and Laboratory Standards Institute guidelines. MICs were determined as the lowest concentration of the compounds that inhibited the fungal growth by 50% after incubation at 35 °C for 24 h (for Candida and Aspergillus), or 48 h (for Cryptococcus). The minimum fungicidal concentration (MFC) of these compounds was tested by plating 4 μL from wells with no growth onto YPD agar plates. The plates were incubated at 37 °C for 24 hours before recording the MFC, which was categorized as the lowest concentration that reduced fungal growth by 99.9% [45]. The experiment was repeated three independent times.

The text below walks through data of paper PMC8568133, “Evaluation of bisphenylthiazoles as a promising class for combating multidrug-resistant fungal infections” (PLoS ONE, 2021).

The structures appear in SMILES notation. ≈ marks a conversion by molar mass, not a printed value. Where two headings read alike, the source gives them in different places.

Turning to `Cc1nc(-c2ccc(-c3ccccc3)cc2)sc1-c1nnc(N[C@@H]2CCCC[C@@H]2N)o1` (relative stereo) [Compound 17, cis-N-{5-[2-((1,1’-Biphenyl)-4-yl)-4-methylthiazol-5-yl]-1,3,4-oxadiazol-2-yl}cyclo-hexane-1,2-diamine], the MIC was above 64 µg/mL in test [1]; 128 µg/mL (≈ 297 µM) in test [2]; above 128 µg/mL in test [3]; 128 µg/mL (≈ 297 µM) in test [4]; 0.5 µg/mL (≈ 1.16 µM) with Cryptococcus gattii (C. gattii NR 43209); 0.5 µg/mL (≈ 1.16 µM) in the test with Cryptococcus gattii (C. gattii NR 43210). The MIC in the test with Cryptococcus neoformans (C. neoformans NR 41298), with Cryptococcus neoformans (C. neoformans NR 41300) and in the test on Cryptococcus neoformans (C. neoformans NR 48770) was 1 µg/mL (≈ 2.32 µM) each time. Moreover, in the test with Candida strains, the “fungistatic or fungicidal activity” value is “fungistatic”.
